Reference: patent US20250042889A1, “3CLPRO PROTEASE INHIBITOR” (SHANGHAI QILU PHARMACEUTICAL RESEARCH AND DEVELOPMENT …, priority 2021, published 2025)

Target: SARS-COV-2 3CLpro/Mpro protease (Severe acute respiratory syndrome coronavirus 2 (2019-nCoV) (SARS-CoV-2), UniProt P0DTD1)
Experiment: Inhibitory effect on SARS-COV-2 3CLpro/Mpro protease by fluorescence resonance energy transfer
Type: biochemical
Conditions: activity intervals A-D, read-out: IC50 (nM), Inhibition on SARS-CoV-2 3CLpro/Mpro protease

Row | Compound | IC50 [nM]
1 | Cc1cc(C(=O)N2CCC[C@@H](Nc3c(C(=O)N4CCC(F)(F)CC4)cc(Br)cc3[N+](=O)[O-])C2)cc(=O)[nH]1 [Example 108] | 10 to 50
2 | O=C(N[C@H]1CCCC[C@H]1Nc1c(C(=O)N2CCC(N3CCOCC3)CC2)cc(Br)cc1C(F)(F)F)c1cncc2cc(Cl)ccc12 [Example 109] | 10 to 50
3 | COCCN1CCN(C(=O)c2cc(Br)cc([N+](=O)[O-])c2N[C@@H]2CCCC[C@@H]2NC(=O)c2cncc3cc(Cl)ccc23)CC1 [Example 111] | < 10
4 | C[C@@H]1CN(C(=O)c2cc(Br)cc(C(F)(F)F)c2N[C@@H]2CCCC[C@@H]2NC(=O)c2cncc3cc(Cl)ccc23)C[C@H](C)O1 [Example 112] | 10 to 50
5 | C[C@@H]1CN(C(=O)c2cc(Br)cc([N+](=O)[O-])c2N[C@@H]2CCCC[C@@H]2NC(=O)c2cncc3cc(Cl)ccc23)C[C@H](C)O1 [Example 113] | < 10
6 | Nc1cncc(C(=O)N2CCC[C@@H](Nc3c(C(=O)N4CCOCC4)cc(Br)cc3[N+](=O)[O-])C2)c1 [Example 114] | 10 to 50
7 | C[C@@H]1CN(C(=O)c2cc(Br)cc([N+](=O)[O-])c2N[C@@H]2CCCN(C(=O)c3cncc(I)c3)C2)C[C@H](C)N1 [Example 115] | 10 to 50
8 | O=C(c1cc(Br)cc([N+](=O)[O-])c1N[C@@H]1CCCN(C(=O)c2cc(=O)[nH]c3ccccc23)C1)N1CCCCC1 [Example 116] | < 10
9 | O=C(c1cc(Br)cc([N+](=O)[O-])c1N[C@@H]1CCCN(C(=O)c2cc(=O)[nH]c3cc(Cl)ccc23)C1)N1CCOCC1 [Example 117] | 10 to 50
10 | O=C(N[C@H]1CCCC[C@H]1Nc1c(C(=O)N2CCN(CCO)CC2)cc(Br)cc1[N+](=O)[O-])c1cncc2cc(Cl)ccc12 [Example 118] | 10 to 50
11 | O=C(c1cc(Br)cc([N+](=O)[O-])c1N[C@@H]1CCCN(C(=O)c2cc(=O)[nH]c3ccccc23)C1)N1CCOCC1 [Example 119] | 10 to 50
12 | COCCN1CCN(C(=O)c2cc(Br)cc([N+](=O)[O-])c2N[C@@H]2CCCN(C(=O)c3cncc(I)c3)C2)CC1 [Example 120] | < 10
13 | C[C@@H]1CN(C(=O)c2cc(Br)cc([N+](=O)[O-])c2N[C@@H]2CCCC[C@@H]2NC(=O)c2cc(=O)[nH]c3ccccc23)C[C@H](C)O1 [Example 121] | < 10
14 | O=C(N[C@H]1CCCC[C@H]1Nc1c(C(=O)N2C[C@@H](O)CO2)cc(Br)cc1[N+](=O)[O-])c1cncc2cc(Cl)ccc12 [Example 122] | 10 to 50
15 | CN1CCN(C(=O)c2cc(Br)cc([N+](=O)[O-])c2N[C@@H]2CCCC[C@@H]2NC(=O)c2cncc3cc(Cl)ccc23)CC1 [Example 123] | < 10
16 | O=C(N[C@H]1CCCC[C@H]1Nc1c(C(=O)N2CC3(CCOCC3)C2)cc(Br)cc1[N+](=O)[O-])c1cncc2cc(Cl)ccc12 [Example 124] | 10 to 50
17 | C[C@@H]1CN(C(=O)c2cc(Br)cc([N+](=O)[O-])c2N[C@@H]2CCN(C(=O)c3cncc4cc(Cl)ccc34)C2)C[C@H](C)N1 [Example 125] | < 10
18 | O=C(N[C@H]1CCCC[C@H]1Nc1c(C(=O)N2CC[C@@H](O)C2)cc(Br)cc1C(F)(F)F)c1cncc2cc(Cl)ccc12 [Example 126] | 10 to 50
19 | O=C(c1cc(Br)cc([N+](=O)[O-])c1N[C@@H]1CCCN(C(=O)c2cc(=O)[nH]c3cc(Cl)ccc23)C1)N1CCCCC1 [Example 128] | 10 to 50
20 | C[C@@H]1CN(C(=O)c2cc(Br)cc([N+](=O)[O-])c2N[C@@H]2CCCN(C(=O)c3cc(=O)[nH]c4cc(Cl)ccc34)C2)C[C@H](C)O1 [Example 129] | 10 to 50

Row | Compound | IC50 [nM]
21 | C[C@H]1CN(C(=O)c2cc(Br)cc([N+](=O)[O-])c2N[C@@H]2CCCN(C(=O)c3cc(=O)[nH]c4ccccc34)C2)CCO1 [Example 130] | 10 to 50
22 | C[C@@H]1CN(C(=O)c2cc(Br)cc([N+](=O)[O-])c2N[C@@H]2CCCC[C@@H]2NC(=O)c2cncc3cc(Cl)ccc23)C[C@H](C)N1 [Example 131] | 10 to 50
23 | O=C(N[C@H]1CCCC[C@H]1Nc1c(C(=O)N2CCC3(CC2)COC3)cc(Br)cc1[N+](=O)[O-])c1cncc2cc(Cl)ccc12 [Example 132] | 10 to 50
24 | C[C@@H]1CN(C(=O)c2cc(Br)cc([N+](=O)[O-])c2N[C@@H]2CCCN(C(=O)c3cc(=O)[nH]c4ccccc34)C2)C[C@H](C)O1 [Example 133] | 10 to 50
25 | O=C(c1cc(Br)cc([N+](=O)[O-])c1N[C@@H]1CCCN(C(=O)c2cc(=O)[nH]c3ccccc23)C1)N1CCC(N2CCOCC2)CC1 [Example 134] | 10 to 50
26 | C[C@@H]1CN(C(=O)c2cc(Br)cc([N+](=O)[O-])c2N[C@@H]2CCCN(C(=O)c3cncc4cc(Cl)ccc34)C2)C[C@H](C)N1 [Example 135] | 10 to 50
27 | O=C(N[C@H]1CCCC[C@H]1Nc1c(C(=O)N2CCC(N3CCOCC3)CC2)cc(Br)cc1[N+](=O)[O-])c1cc(=O)[nH]c2ccccc12 [Example 136] | < 10
28 | O=C(NN1CCOCC1)c1cc(Br)cc([N+](=O)[O-])c1N[C@@H]1CCCN(C(=O)c2cncc(I)c2)C1 [Example 137] | 10 to 50
29 | O=C(c1cc(Br)cc([N+](=O)[O-])c1N[C@@H]1CCCN(C(=O)c2cc(=O)[nH]c3ccccc23)C1)N1CCN(CC(F)(F)F)CC1 [Example 138] | 10 to 50
30 | C[C@@H]1CN(C(=O)c2cc(Br)cc([N+](=O)[O-])c2N[C@@H]2CCCN(C(=O)c3cc(=O)[nH]c4ccccc34)C2)C[C@H](C)N1 [Example 139] | 10 to 50
31 | C[C@@H]1CN(C(=O)c2cc(Br)cc([N+](=O)[O-])c2N[C@@H]2CCCN(C(=O)c3cc(=O)[nH]c4ccccc34)C2)CCO1 [Example 140] | 10 to 50
32 | N[C@@H]1C[C@H](O)CN(C(=O)c2cc(Br)cc([N+](=O)[O-])c2N[C@@H]2CCCC[C@@H]2NC(=O)c2cncc3ccccc23)C1 [Example 141] | 10 to 50
33 | O=C(c1cc(Br)cc([N+](=O)[O-])c1N[C@@H]1CCCN(C(=O)C2CNCc3ccccc32)C1)N1CCOCC1 (stereo partly shown) [Example 142] | 10 to 50
34 | O=C(N[C@H]1CCCC[C@H]1Nc1c(C(=O)N2CCNCC2)cc(Br)cc1C(F)(F)F)c1cncc2cc(Cl)ccc12 [Example 143] | 10 to 50
35 | C[C@@H]1CN(C(=O)c2cc(Br)cc([N+](=O)[O-])c2N[C@@H]2CCCN(C(=O)c3cncc4[nH]ncc34)C2)C[C@H](C)O1 [Example 144] | 10 to 50
36 | C[C@@H]1CN(C(=O)c2cc(Br)cc([N+](=O)[O-])c2N[C@@H]2CCCN(C(=O)C3CCCOC3)C2)C[C@H](C)O1 (stereo partly shown) [Example 145] | 10 to 50
37 | Cc1cc(C(=O)N2CCC[C@@H](Nc3c(C(=O)N4CCN(CC(F)(F)F)CC4)cc(Br)cc3[N+](=O)[O-])C2)cc(=O)[nH]1 [Example 146] | 10 to 50
38 | O=C(N[C@H]1CCCC[C@H]1Nc1c(C(=O)N2CCC(O)CC2)cc(Br)cc1C(F)(F)F)c1cncc2cc(Cl)ccc12 [Example 147] | 10 to 50
39 | Cc1cc(C(=O)N2CCC[C@@H](Nc3c(C(=O)N4CC5CC5C4)cc(Br)cc3[N+](=O)[O-])C2)cc(=O)[nH]1 (stereo partly shown) [Example 148] | 50 to 100
40 | Cc1cc(C(=O)N2CCC[C@@H](Nc3c(C(=O)N4CCCCC4)cc(Br)cc3[N+](=O)[O-])C2)cc(=O)[nH]1 [Example 149] | 10 to 50

Row | Compound | IC50 [nM]
41 | O=C(c1cc(Br)[nH]c(=O)c1)N1CCC[C@@H](Nc2c(C(=O)N3CCC(F)(F)CC3)cc(Br)cc2[N+](=O)[O-])C1 [Example 150] | 50 to 100
42 | C[C@@H]1CN(C(=O)c2cc(Br)cc([N+](=O)[O-])c2N[C@@H]2CCCN(C(=O)c3cncc4[nH]cnc34)C2)C[C@H](C)O1 [Example 151] | 10 to 50
43 | C[C@@H]1CN(C(=O)c2cc(Br)cc([N+](=O)[O-])c2N[C@@H]2CCOC[C@@H]2NC(=O)c2cncc3ccccc23)C[C@H](C)O1 [Example 152] | 10 to 50
44 | CNc1cncc(C(=O)N2C[C@H](Nc3c(C(=O)N4CCN(CCOC)CC4)cc(Br)cc3[N+](=O)[O-])C3(CC3)C2)c1 [Example 153] | 10 to 50
45 | Cc1cc(C(=O)N2CC(Nc3c(C(=O)N4CCC5(CCC5)CC4)cc(Br)cc3[N+](=O)[O-])C(F)(F)C2)cc(=O)[nH]1 (stereo not shown) [Example 154] | 50 to 100
46 | Cc1cc(C(=O)N2CC(Nc3c(C(=O)N4CCC(C)(C)CC4)cc(Br)cc3[N+](=O)[O-])C(F)(F)C2)cc(=O)[nH]1 (stereo not shown) [Example 155] | 50 to 100
47 | Cc1cc(C(=O)N2CC(Nc3c(C(=O)N4CCC5(CCCC5)CC4)cc(Br)cc3[N+](=O)[O-])C(F)(F)C2)cc(=O)[nH]1 (stereo not shown) [Example 156] | 10 to 50
48 | Cc1cc(C(=O)N2CC(Nc3c(C(=O)N4CCN(CC(F)(F)F)CC4)cc(Br)cc3[N+](=O)[O-])C(F)(F)C2)cc(=O)[nH]1 (stereo not shown) [Example 157] | 50 to 100
49 | O=C1C[C@H](C(=O)N2CCC[C@@H](Nc3c(C(=O)N4CCC5(CCCCC5)CC4)cc(Br)cc3[N+](=O)[O-])C2)CCN1 [Example 158] | 10 to 50
50 | Cc1cc(C(=O)N2CCC[C@@H](Nc3c(C(=O)N4CC(O)CC(Cl)C4)cc(Br)cc3[N+](=O)[O-])C2)cc(=O)[nH]1 (stereo partly shown) [Example 159] | < 10
51 | Cc1cc(C(=O)N2CC(Nc3c(C(=O)N4CCC5(CCCCC5)CC4)cc(Br)cc3[N+](=O)[O-])C(F)(F)C2)cc(=O)[nH]1 (stereo not shown) [Example 160] | 10 to 50
52 | CNc1cncc(C(=O)N2CC(Nc3c(C(=O)N4C[C@@H](C)O[C@@H](C)C4)cc(Br)cc3[N+](=O)[O-])C(F)(F)C2)c1 (stereo partly shown) [Example 161] | 10 to 50
53 | CNc1cncc(C(=O)N2C[C@H](Nc3c(C(=O)N4C[C@@H](C)O[C@@H](C)C4)cc(Br)cc3[N+](=O)[O-])C(C)(C)C2)c1 [Example 162] | 10 to 50
54 | CC(C)(C)C1CCN(C(=O)c2cc(Br)cc([N+](=O)[O-])c2N[C@@H]2CCCN(C(=O)[C@@H]3CCNC(=O)C3)C2)CC1 [Example 163] | 10 to 50
55 | C[C@@H]1CN(C(=O)c2cc(Br)cc([N+](=O)[O-])c2NC2CN(C(=O)c3cncc(I)c3)CC2(F)F)C[C@H](C)O1 (stereo partly shown) [Example 164] | 10 to 50
56 | O=C(c1cncc(I)c1)N1CC(Nc2c(C(=O)N3CCCCC3)cc(Br)cc2[N+](=O)[O-])C(F)(F)C1 (stereo not shown) [Example 165] | 10 to 50
57 | CNc1cncc(C(=O)N2CC(Nc3c(C(=O)N4CCC(C)(C)CC4)cc(Br)cc3[N+](=O)[O-])C(F)(F)C2)c1 (stereo not shown) [Example 166] | 10 to 50
58 | O=C(c1cncc(I)c1)N1CC(Nc2c(C(=O)N3CCOCC3)cc(Br)cc2[N+](=O)[O-])C(F)(F)C1 (stereo not shown) [Example 167] | 10 to 50
